Laboratory results taken from patent US10508069B2, “Acid/salt separation” (PURAC BIOCHEM B.V., priority 2011, dated 2019).
Where two headings read alike, the source gives them in different places. Blank lines part the entries; values can stand above or below the molecule they belong to.

What was measured:
[1] = Dicarboxylic acid remaining in solution while the HCl-acidified magnesium dicarboxylate solution is cooled (precipitation); assay type: physicochemical
Experimental: Magnesium hydroxide was added to a solution of dicarboxylic acid in water and heated up to complete dissolution. Four different carboxylic acids were used: adipic acid, fumaric acid, itaconic acid and 2,5-furandicarboxylic acid. The resulting dicarboxylate solution was meant to resemble a magnesium dicarboxylate solution obtained in a fermentation process. Although a magnesium dicarboxylate solution obtained in a fermentation process generally comprises compounds other than magnesium dicarbooxylate, such as a relatively large amount of impurities, the magnesium dicarboxylate solution prepared for this example was considered to sufficiently resemble a magnesium dicarboxylate solution obtained in a fermentation process to show the proof of principle that the invention works.
A certain amount of an aqueous solution of HCl was added to the magnesium dicarboxylate solution from Example 1, as indicated in Table 2. […] During cooling, samples were taken of the solution for each 10±1 centigrade.
The amount of crystal produced was calculated as difference between the initial dicarboxylic mass and the remaining dicarboxylic mass in solution.

[2] = water at 20° C.; cited from earlier work
[3] = Experimental: An amount of 333 g aqueous solution of HCl (37 wt. % wt %) was added to the thus prepared magnesium succinate solution. […] During cooling, samples were taken of the solution and the precipitate of the mixture at 62, 52, 40, 31 and 20° C. The composition of the samples and the total amount of precipitate formed were determined.
The samples were taken only from the solution (for sampling, stirrer was stopped some few seconds, and after crystal settling, a sample was taken from the supernatant).

[4] = remark: listed apart in the source
Experimental: The solution was then cooled from 115° C. to 20° C. […] The precipitate was separated from the solution by filtration using a standard gravity filter.

[5] = 20 ° C., MgCl2 solution, over precipitate
[6] = 30 ° C., MgCl2 solution, over precipitate
[7] = 40 ° C., MgCl2 solution, over precipitate
[8] = 50 ° C., MgCl2 solution, over precipitate
[9] = 60 ° C., MgCl2 solution after HCl acidulation, no precipitate yet

2,5-Furandicarboxylic Acid concentration in the solution ([1]; 22 ° C., MgCl2 solution, over precipitate): 0.06% | 2,5-Furandicarboxylic Acid concentration in the solution ([1]; 32 ° C., MgCl2 solution, over precipitate): 0.14% | 2,5-Furandicarboxylic Acid concentration in the solution ([1]; 42 ° C., MgCl2 solution, over precipitate): 0.33% | 2,5-Furandicarboxylic Acid concentration in the solution ([1]; 53 ° C., MgCl2 solution, over precipitate): 0.25% | 2,5-Furandicarboxylic Acid concentration in the solution ([1]; 62 ° C., MgCl2 solution, over precipitate): 0.38% | 2,5-Furandicarboxylic Acid concentration in the solution ([1]; 72 ° C., MgCl2 solution, over precipitate): 0.19% | 2,5-Furandicarboxylic Acid concentration in the solution ([1]; 84 ° C., MgCl2 solution, over precipitate): 0.52%
SMILES: O=C(O)c1ccc(C(=O)O)o1 [2,5-Furandicarboxylic Acid, 2,5-furandicarboxylic acid]

Adipic Acid concentration in the solution [1, 5]: 0.7 wt % | Adipic Acid concentration in the solution [1, 6]: 1.2 wt % | Adipic Acid concentration in the solution [1, 7]: 2 wt % | Adipic Acid concentration in the solution ([1]; 51 ° C., MgCl2 solution, over precipitate): 3.5 wt % | Adipic Acid concentration in the solution ([1]; 60 ° C., MgCl2 solution, over precipitate): 6.1 wt % | Adipic Acid concentration in the solution ([1]; 70 ° C., MgCl2 solution, over precipitate): 11.5 wt % | Adipic Acid concentration in the solution ([1]; 81 ° C., MgCl2 solution after HCl acidulation, no precipitate yet): 14.2 wt %
SMILES: O=C(O)CCCCC(=O)O [Adipic Acid, adipic acid]

Fumaric Acid concentration in the solution [1, 5]: 0.5 wt % | Fumaric Acid concentration in the solution [1, 6]: 0.5 wt % | Fumaric Acid concentration in the solution ([1]; 39 ° C., MgCl2 solution, over precipitate): 0.7 wt % | Fumaric Acid concentration in the solution [1, 8]: 1.1 wt % | Fumaric Acid concentration in the solution [1, 9]: 1.6 wt %
SMILES: O=C(O)/C=C/C(=O)O [Fumaric Acid, fumaric acid]

SMILES: C=C(CC(=O)O)C(=O)O [Itaconic Acid, itaconic acid]
Itaconic Acid concentration in the solution [1, 5]: 2.6 wt % | Itaconic Acid concentration in the solution [1, 6]: 4.1 wt % | Itaconic Acid concentration in the solution ([1]; 41 ° C., MgCl2 solution, over precipitate): 6.0 wt % | Itaconic Acid concentration in the solution [1, 8]: 9.4 wt % | Itaconic Acid concentration in the solution [1, 9]: 13.2 wt %

SMILES: [Cl-].[Cl-].[Mg+2] [MgCl2, magnesium chloride]
saturation point in water [2]: 55 g/100 g water

Succinic Acid concentration in the solution [3, 5]: 2.10 wt. % | Succinic Acid concentration in the solution ([3]; 31 ° C., MgCl2 solution, over precipitate): 3.40 wt. % | Succinic Acid concentration in the solution [3, 7]: 5.00 wt. % | Succinic Acid concentration in the solution ([3]; 52 ° C., MgCl2 solution, over precipitate): 8.20 wt. % | Succinic Acid concentration in the solution ([3]; 62 ° C., MgCl2 solution after HCl acidulation, no precipitate yet): 13.13 wt. % | succinic acid present in the filtrate ([4]; HPLC, filtrate after cooling from 115° C. to 20° C., 31.7 wt. % magnesium chloride): 0.22 wt. % | Content succínic, Solution ([4]; solution after cooling to 20° C. and filtration, concentrated to 31.7 wt. % magnesium chloride): 0.22%
SMILES: O=C(O)CCC(=O)O [Succinic Acid, succinic acid]
